The values that follow come from paper PMC11115308 (Biochemical pharmacology, 2023).

Assay [1] has as its target T1, CXCR4 (Homo sapiens, UniProt P61073). Put plainly: β-Arrestin-2 recruitment in Tango CXCR4-bla U2OS cells. It counts as cell-based. Particulars: antagonist at 1 μM. A general note: Recruitment of arrestin is a read-out of receptor activation apart from second messengers.
Assay [2] addresses T1, CXCR4. Format: cell-based. The following applies: log value.

T1 sequence (P61073 whole entry): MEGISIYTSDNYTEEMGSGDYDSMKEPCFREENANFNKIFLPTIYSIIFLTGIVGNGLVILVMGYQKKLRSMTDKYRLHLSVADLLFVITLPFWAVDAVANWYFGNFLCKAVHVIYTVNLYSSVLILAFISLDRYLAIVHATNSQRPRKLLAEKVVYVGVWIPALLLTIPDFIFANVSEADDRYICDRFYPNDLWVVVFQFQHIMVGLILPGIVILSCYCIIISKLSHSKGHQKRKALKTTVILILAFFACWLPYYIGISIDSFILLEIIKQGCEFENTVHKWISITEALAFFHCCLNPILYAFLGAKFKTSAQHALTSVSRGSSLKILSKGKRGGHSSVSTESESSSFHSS

As for `c1cc(CN2CCCNCCNCCCNCC2)ccc1CN1CCCNCCNCCCNCC1` [AMD3100], the “effect on CXCL12 β-arrestin response” value at CXCR4 [1] is reported as “abolishes CXCL12 β-arrestin response”. For “CXCL12: C-X-C Motif Chemokine Ligand 12, chemokine that binds CXCR4; endogenous ligand”, the “inhibition of forskolin-stimulated cAMP production log IC50” value with CXCR4 [2] was −8.9 ± 0.1 M.
